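All cell lines were grown in 96-well plates and treated with compound for 48 hours. Here, GI50 denotes the concentration required for 50% inhibition of growth.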 Activity calls are given as the source filed them. Cut-off read from the data, not from the text of the source: active = GI50 up to about 1.1 µM and inactive = higher.

Here are results for four compounds from ChEMBL document CHEMBL1201862, “PubChem BioAssay data set” (2004).

Among the test systems are ACHN; BT-549; EKVX; HCT-116; HCT-15; HOP-62; HOP-92; M14; NCI-H23; NCI-H522; NCI/ADR-RES; OVCAR-8; SF-268; SK-MEL-28; SN12C; SNB-19; SW-620; SF-539.
Holding throughout (test): inhibition of tumour cell growth, NCI panel, 48 h

`Clc1ccc(CSC2=NCCN2)cc1Cl`: the GI50 in the assay with ACHN was 15 µM (inactive); in the assay with BT-549 it was 18.8 µM (inactive); in the assay on EKVX, 8.89 µM (inactive); in the assay on HCT-116, 14.9 µM (inactive); in the assay on HCT-15 it was 15 µM; with HOP-62, 23.4 µM (inactive). Also, the GI50 was 3.3 µM (inactive) in the assay with HOP-92; 15.2 µM (inactive) with M14; 15.6 µM (inactive) in the assay on NCI-H23; 4.5 µM (inactive) in the assay on NCI-H522; 20.1 µM (inactive) in the assay on NCI/ADR-RES; 15.9 µM (inactive) with OVCAR-8. Besides, the GI50 is 14.9 µM (inactive) with SF-268; 18.7 µM (inactive) in the assay on SK-MEL-28; 15.2 µM (inactive) in the assay with SN12C; 32.3 µM (inactive) in the assay on SNB-19; 16.2 µM (inactive) with SW-620.
Turning to `CC1(O)CC23CC(O)C4(O)C(CC(O)C4(C)C)C(C)(O)C2CCC1C3O` (centres undefined), the GI50 with ACHN was > 100 µM (inactive); in the assay with BT-549, > 100 µM (inactive); in the assay on EKVX, > 100 µM (inactive); in the assay with HCT-116, > 100 µM (inactive); with HCT-15, more than 100 µM; with HOP-92, > 100 µM (inactive). Moreover, the GI50 in the assay on M14, with NCI-H23, in the assay with NCI-H522, in the assay on NCI/ADR-RES, in the assay on OVCAR-8 and in the assay with SF-268 was > 100 µM (inactive) throughout. The GI50 with SF-539, with SK-MEL-28, in the assay with SN12C, in the assay on SNB-19 and in the assay on SW-620 was > 100 µM (inactive) each time.
Regarding `N#CC(=C1CCCCC1)c1nc2ccccc2o1`, the GI50 was > 100 µM (inactive) in the assay with ACHN; 32.1 µM (inactive) with BT-549; 34.5 µM (inactive) in the assay with EKVX; 55.3 µM (inactive) in the assay on HCT-116; 49.4 µM in the assay on HCT-15; > 100 µM (inactive) in the assay with HOP-62. The GI50 is 34.5 µM (inactive) in the assay with HOP-92; 80.7 µM (inactive) in the assay on M14; 66.8 µM (inactive) with NCI-H23; 20.6 µM (inactive) in the assay with NCI-H522; 40 µM (inactive) in the assay with NCI/ADR-RES; 47.4 µM (inactive) with OVCAR-8. Further, the GI50 in the assay on SF-268 is 55.2 µM (inactive); in the assay on SF-539, 31.7 µM (inactive); in the assay on SK-MEL-28 it was > 100 µM (inactive); with SN12C, > 100 µM (inactive); in the assay with SNB-19 it was > 100 µM (inactive).
Turning to `COc1ccc(C2=Nc3cc(C)c(C)cc3NC(c3ccccc3)C2)cc1` (centres undefined), the GI50 with ACHN is > 100 µM (inactive); with BT-549, > 100 µM (inactive); in the assay with EKVX, > 100 µM (inactive); with HCT-116, 27 µM (inactive); with HCT-15 it was 41.4 µM; in the assay with HOP-62, > 100 µM (inactive). Also, the GI50 with HOP-92 is 24.1 µM (inactive); in the assay with M14, > 100 µM (inactive); in the assay on NCI-H23, > 100 µM (inactive); with NCI-H522, 30.8 µM (inactive); in the assay on NCI/ADR-RES, 43.4 µM (inactive); in the assay on OVCAR-8, > 100 µM (inactive). The GI50 in the assay on SF-268, in the assay with SF-539, with SK-MEL-28, in the assay with SN12C, in the assay on SNB-19 and with SW-620 was > 100 µM (inactive) throughout.
